Among the data in patent EP0508726A1, “Novel process for the preparation of 9-deoxo-8a-aza-8a-homoerythromycin a and its 8a-alkyl derivatives” (MERCK & CO. INC., priority 1991, dated 1992) are MIC values, retold here.

Converted amounts (≈) assume the structure as drawn.

Holding throughout (experiment): liquid turbidimetric microtiter MIC determination
Common to all, as to format: cell-based

In test [1] the test system is Staphylococcus epidermidis MB 5414. The conditions noted are these: MB5414, brain heart infusion broth. The text has this:
(§1) The antibacterial activities of compounds (IV), (X) against a panel of aerobic Gram positive and negative bacteria is shown in the following Table. The assay employs a liquid turbidimetric microtiter method for the determination of the minimum inhibitory concentration (MIC) in brain heart infusion broth. […] The MIC is generally not an absolute value but rather a concentration range that falls within a two-fold dilution limit. Generally twelve two-fold dilutions of the test compound are employed with the initial concentration set at 128 mcg/ml.

The subject of test [2] is Enterococcus faecium MB 5416. The following applies: MB5416, brain heart infusion broth.
Source text: as §1

Test [3] relates to Klebsiella pneumoniae MB 4005. The conditions noted are these: MB4005, brain heart infusion broth.
Source text: as §1

Test [4] deals with Pseudomonas stutzeri MB 1231. The conditions noted are these: Stutzerimonas stutzeri, MB1231, brain heart infusion broth.
Source text: as §1

In test [5] the test system is Staphylococcus haemolyticus MB 5412. The following applies: MB5412, brain heart infusion broth.
Source text: as §1

For test [6], the system named is Escherichia coli MB 4926. The following applies: MB4926, brain heart infusion broth.
Source text: as §1

Test [7] relates to Streptococcus pneumoniae CL 2883. The conditions noted are these: CL2883, brain heart infusion broth.
Source text: as §1

For test [8], the system named is Yersinia enterocoltica CL 1598. The conditions noted are these: CL1598, brain heart infusion broth.
Source text: as §1

Test [9] has as its system Staphylococcus aureus MB 2865. The following applies: MB2865, brain heart infusion broth.
Source text: as §1

Test [10] has as its system Escherichia coli MB 2884. The following applies: MB2884, brain heart infusion broth.
Source text: as §1

The test system of test [11] is Streptococcus agalactiae CL 1343. The conditions noted are these: CL1343, brain heart infusion broth.
Source text: as §1

Test [12] has as its system Enterococcus faecalis MB 5407. The conditions noted are these: MB5407, brain heart infusion broth.
Source text: as §1

The test system of test [13] is Steptococcus viridans CL 2943. The conditions noted are these: brain heart infusion broth.
Source text: as §1

For test [14], the system named is Streptococcus pyogenes MB 2874. The conditions noted are these: MB2874, brain heart infusion broth.
Source text: as §1

Test [15] has as its system Streptococcus pyogenes MB 54061. The following applies: MB54061, brain heart infusion broth.
Source text: as §1

In general, MIC refers to the smallest concentration in the dilution series that meets the test's criterion for growth inhibition. A low value points to greater potency. In the case of `CC[C@H]1OC(=O)[C@H](C)[C@@H](O[C@H]2C[C@@](C)(OC)[C@@H](O)[C@H](C)O2)[C@H](C)[C@@H](O[C@@H]2O[C@H](C)C[C@H](N(C)C)[C@H]2O)[C@](C)(O)C[C@@H](C)NC[C@H](C)[C@@H](O)[C@]1(C)O` [(IV), 9-Deoxo-8a-aza-8a-homoerythromycin A], the MIC in [1] is 1 µg/mL (≈ 1.36 µM); in test [2] it was 0.25 µg/mL (≈ 0.34 µM); in test [3], 64 µg/mL (≈ 87.1 µM); in [4], at most 0.06 µg/mL; in test [5] it was 0.5 µg/mL (≈ 0.68 µM); in [6], 2 µg/mL (≈ 2.72 µM). The minimal inhibitory concentration (MIC) was 0.06 µg/mL (≈ 0.0816 µM) in test [7]; 8 µg/mL (≈ 10.9 µM) in test [8]; 0.5 µg/mL (≈ 0.68 µM) in test [9]; 4 µg/mL (≈ 5.44 µM) in test [10]; at most 0.06 µg/mL in test [11]; 8 µg/mL (≈ 10.9 µM) in test [12]. Moreover, the figures for the MIC in test [13], in [14] and in test [15] were 8 µg/mL (≈ 10.9 µM), 0.06 µg/mL (≈ 0.0816 µM) and 128 µg/mL (≈ 174 µM), respectively.
Regarding `CC[C@H]1OC(=O)[C@H](C)[C@@H](O[C@H]2C[C@@](C)(OC)[C@@H](O)[C@H](C)O2)[C@H](C)[C@@H](O[C@@H]2O[C@H](C)C[C@H](N(C)C)[C@H]2O)[C@](C)(O)C[C@@H](C)N(C)C[C@H](C)[C@@H](O)[C@]1(C)O` [(X), 9-Deoxo-8a-methyl-8a-aza-8a-homoerythromycin A], the MIC was 1 µg/mL (≈ 1.34 µM) in test [1]; 0.25 µg/mL (≈ 0.334 µM) in test [2]; 2 µg/mL (≈ 2.67 µM) in test [3]; at most 0.06 µg/mL in [4]; 0.5 µg/mL (≈ 0.668 µM) in [5]; at most 0.06 µg/mL in test [6]. Also, the minimum inhibitory concentration (MIC) in [7] is at most 0.06 µg/mL; in test [8] it was 2 µg/mL (≈ 2.67 µM); in test [9], 0.5 µg/mL (≈ 0.668 µM); in test [10], 1 µg/mL (≈ 1.34 µM); in test [11] it was at most 0.06 µg/mL; in [12], 4 µg/mL (≈ 5.34 µM). Further, the MIC in [13] is 1 µg/mL (≈ 1.34 µM); in test [14] it was at most 0.06 µg/mL; in test [15], 128 µg/mL (≈ 171 µM).
